According to patent EP0326331B1, “Substituted quinolines and cinnolines” (Dow AgroSciences LLC, priority 1988, dated 1989):
Where two headings read alike, the source gives them in different places.

Tests used:
Type in all cases: in vivo
[1] = tested on: Pseudoperonospora cubensis (downy mildew); test: Test 1 greenhouse foliar spray screen, downy mildew on squash; conditions: for DOWN MDEW: disease control rating, foliar spray on squash, 400 ppm (+++ at 100 ppm); for pest or weed control at 400 ppm: Pseudoperonospora cubensis, foliar, Test 1, foliar spray on squash, disease control rating at 400 ppm / 100 ppm, read-out: DOWN MDEW; for activity against downy mildew: summary statement in the description
[2] = tested on: Septoria tritici (leaf blotch); test: Test 1 greenhouse foliar spray screen, leaf blotch on wheat; conditions: for LEAF BLOT: disease control rating, foliar spray on wheat, 400 ppm (+++ at 100 ppm); for pest or weed control at 400 ppm: Zymoseptoria tritici, Test 1, foliar spray on wheat, disease control rating at 400 ppm / 100 ppm, read-out: LEAF BLOT
[3] = tested on: Botrytis cinerea (gray mold); test: Test 1 greenhouse foliar spray screen, gray mold on grape berries; conditions: for GRAY MOLD: disease control rating, spray on grape berries, 400 ppm (+++ at 100 ppm); for pest or weed control at 400 ppm: Botrytis cinerea, foliar, Test 1, spray on grape berries, disease control rating at 400 ppm / 100 ppm
[4] = tested on: Venturia inaequalis (apple scab); test: Test 1 greenhouse foliar spray screen, apple scab on apple seedling; conditions: for APPL SCAB: disease control rating, foliar spray on apple seedling, 400 ppm (+++ at 100 ppm); for pest or weed control at 400 ppm: Venturia inaequalis, Test 1, foliar spray on apple seedling, disease control rating at 400 ppm / 100 ppm, read-out: APPL SCAB
[5] = tested on: Cercospora beticola (leaf spot); test: Test 1 greenhouse foliar spray screen, leaf spot on sugar beet; conditions: for LEAF SPOT: disease control rating, foliar spray on sugar beet, 400 ppm (+++ at 100 ppm); for pest or weed control at 400 ppm: Cercospora beticola, Test 1, foliar spray on sugar beet, disease control rating at 400 ppm / 100 ppm
[6] = tested on: Twospotted spider mites (Tetranychus urticae Koch); test: Mite/insect screen, SM; conditions: for mortality at 200 ppm / mortality at 400 ppm: Tetranychus urticae, foliar, read-out: SM RESULTS %; for activity as miticides: summary statement in the description
Method in brief: (§1)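 Foliar spray to runoff (10 psi), 1 h drying; aqueous dilutions from acetone/alcohol emulsifier stock. Mortality (%) after standard exposure.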

[7] = tested on: melon aphids (Aphis gossypii Glover); test: Mite/insect screen, MA; conditions: Aphis gossypii, foliar, read-out: MA RESULTS %
Method in brief: as §1

[8] = tested on: Pyricularia oryzae (rice blast); test: whole plant or invertebrate; conditions: for RICE BLAST: disease control rating, foliar spray on rice, 400 ppm (+++ at 100 ppm); for pest or weed control at 400 ppm: Pyricularia oryzae, foliar, read-out: RICE BLAST, Test 1, foliar spray on rice, disease control rating at 400 ppm / 100 ppm
[9] = tested on: southern armyworm (Spodopetra eridania Cramer); test: Mite/insect screen, SAW; conditions: Spodoptera eridania, foliar, read-out: SAW RESULTS %
Method in brief: as §1

[10] = tested on: Erysiphe graminis tritici (powdery mildew); test: Test 1 greenhouse foliar spray screen, powdery mildew on wheat; conditions: for POWD MDEW: disease control rating, foliar spray on wheat, 400 ppm (+++ at 100 ppm); for pest or weed control at 400 ppm: Blumeria graminis, foliar, Test 1, foliar spray on wheat, disease control rating at 400 ppm / 100 ppm, read-out: POWD MDEW
[11] = tested on: Puccinia recondita tritici (leaf rust); test: Test 1 greenhouse foliar spray screen, leaf rust on wheat; conditions: for LEAF RUST: disease control rating, foliar spray on wheat, 400 ppm (+++ at 100 ppm); for pest or weed control at 400 ppm: Puccinia recondita, foliar, Test 1, foliar spray on wheat, disease control rating at 400 ppm / 100 ppm
corn rootworm = test: Mite/insect screen, CRW; conditions: read-out: CRW RESULTS %
Method in brief: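 Following dissolution in equal parts acetone and alcohol with 23 g/L and 13 g/L emulsifier blends and dilution with water, test solutions were scored for percent mortality at the end of standard exposures.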

[12] = percent mortality, rate 200 ppm, foliar spray on squash
[13] = percent mortality, rate 400 ppm, foliar spray on squash
[14] = percent mortality, CRW rate 12.00 ppm
[15] = percent mortality, CRW rate 24.00 ppm

SMILES	mortality at 200 ppm [6, 12] [%]	mortality at 400 ppm [6, 13] [%]	mortality at 200 ppm [7, 12] [%]	mortality at 400 ppm [7, 13] [%]	mortality at 200 ppm [9, 12] [%]	mortality at 400 ppm [9, 13] [%]	mortality at 12 ppm (corn rootworm; [14]) [%]	mortality at 24 ppm (corn rootworm; [15]) [%]	pest or weed control at 400 ppm [1] [%]	pest or weed control at 400 ppm [2] [%]	pest or weed control at 400 ppm [3] [%]	pest or weed control at 400 ppm [4] [%]	pest or weed control at 400 ppm [5] [%]	pest or weed control at 400 ppm [8] [%]	pest or weed control at 400 ppm [10] [%]	pest or weed control at 400 ppm [11] [%]	other results
Clc1ccc(CCNc2ccc3c(NCCc4ccc(Cl)cc4)ccnc3c2)cc1 [Example 186, N,N'-bis[2-(4-chlorophenyl)ethyl]-4,7-quinolinediamine]	0	0	0	0	0	0	0	0									DOWN MDEW [1]: +++ (90-100% control at 100 ppm); LEAF BLOT [2]: + (20-89% control at 400 ppm); GRAY MOLD [3]: - (0-19% control at 400 ppm); APPL SCAB [4]: - (0-19% control at 400 ppm); LEAF SPOT [5]: + (20-89% control at 400 ppm); RICE BLAST [8]: - (0-19% control at 400 ppm); POWD MDEW [10]: - (0-19% control at 400 ppm); LEAF RUST [11]: + (20-89% control at 400 ppm)
COc1ccc(CCNc2ccc3c(NCCc4ccc(OC)cc4)ccnc3c2)cc1 [Example 187, N,N'-bis[2-(4-methoxyphenyl)ethyl]-4,7-quinolinediamine]	0	0	0	0	0	0	0	0									DOWN MDEW [1]: +++ (90-100% control at 100 ppm); LEAF BLOT [2]: - (0-19% control at 400 ppm); GRAY MOLD [3]: - (0-19% control at 400 ppm); APPL SCAB [4]: - (0-19% control at 400 ppm); LEAF SPOT [5]: - (0-19% control at 400 ppm); RICE BLAST [8]: + (20-89% control at 400 ppm); POWD MDEW [10]: - (0-19% control at 400 ppm); LEAF RUST [11]: + (20-89% control at 400 ppm)
c1ccc(CCNc2ccnc3c(NCCc4ccccc4)cccc23)cc1 [Example 189, N,N'-bis(2-phenylethyl)-4,8-quinolinediamine]	0		0		0		0		20 to 89	0 to 19	0 to 19	0 to 19	0 to 19	20 to 89	0 to 19	20 to 89	
Fc1cccc2c(NCCc3ccc(Cl)cc3Cl)cc(NCCc3ccc(Cl)cc3Cl)nc12 [Example 190, N,N'-bis[2-(2,4-dichlorophenyl)ethyl]-8-fluoro-2,4-quinolinediamine]	0		0		0				0 to 19	0 to 19	0 to 19	0 to 19	0 to 19	20 to 89	0 to 19	90 to 100	mortality at 12 ppm (corn rootworm): 0%
C1=C(CCNc2ccc3nccc(NCCC4=CCCCC4)c3c2)CCCC1 [Example 192, N,N'-bis[2-(1-cyclohexen-yl)ethyl]-4,6-quinolinediamine]	0	0	0	0	0	0	0	0	90 to 100	20 to 89	0 to 19	0 to 19	0 to 19	0 to 19	0 to 19	90 to 100	
Fc1cccc2c(OCCc3cccc(Cl)c3)ccnc12 [Example 201, 4-[2-(3-chlorophenyl)ethoxy]-8-fluoroquinoline]	80	80	100	100	0	0	0	0	90 to 100	90 to 100	0 to 19	20 to 89	90 to 100	20 to 89	90 to 100	90 to 100	activity against downy mildew [1]: particularly excellent activity; activity as miticides [6]: particularly excellent activity
Clc1ccc2c(OCCc3ccccc3)ccnc2c1 [Example 202, 7-chloro-4-(2-phenylethoxy)quinoline]	0	0	0	0	0	0	0	0	90 to 100	20 to 89	0 to 19	0 to 19	20 to 89	20 to 89	90 to 100	90 to 100	
Fc1cccc2c(OCCc3cccc(C(F)(F)F)c3)ccnc12 [Example 203, 8-fluoro-4-[2-(3-(trifluoromethyl)phenyl)ethoxy]quinoline]									90 to 100	90 to 100	0 to 19	20 to 89	20 to 89	90 to 100	20 to 89	90 to 100	activity against downy mildew [1]: particularly excellent activity; mortality at 200 ppm [6]: 0%; mortality at 400 ppm [6]: 0%; activity as miticides [6]: particularly excellent activity; mortality at 200 ppm [7]: 100%; mortality at 400 ppm [7]: 90%; activity against rice blast ([8]; summary statement in the description): particularly excellent activity; mortality at 200 ppm [9]: 10%; mortality at 400 ppm [9]: 0%; mortality at 12 ppm (corn rootworm): 0%; mortality at 24 ppm (corn rootworm): 0%
Clc1cccc2c(OCCc3ccccc3)ccnc12 [Example 207, 8-chloro-4-(2-phenylethoxy)quinoline]	0		0		0		0		90 to 100	90 to 100	0 to 19	20 to 89	20 to 89	90 to 100	90 to 100	90 to 100	
c1ccc(CCOc2ccnc3ccccc23)cc1 [Example 208, 4-(2-phenylethoxy)quinoline]	10		10		0		0		90 to 100	20 to 89	0 to 19	0 to 19	20 to 89	90 to 100	90 to 100	90 to 100	
